Tests used:
[1] = target: p38α (Homo sapiens, UniProt Q16539); details: fold selective over p38β; cited from earlier work
[2] = test system: DUX4 mRNA; test: DUX4 mRNA levels by RT-qPCR in differentiating MB200 FSHD2 patient-derived muscle cells; assay type: cell-based, human; details: varying concentrations, 24 hours, vs DMSO vehicle set to one
Description: (§1) FIG. 13A-C. CDK7 inhibitor THZ1 reduces DUX4 expression in FSHD cells and cancer cells. (A) Differentiating MB200 FSHD2 patient-derived muscle cells, (B) SuSa testicular teratocarcinoma cells, or (C) KLE endometrial adenocarcinoma cells were treated with vehicle (−, DMSO) or varying concentrations of THZ1, as indicated, for 24 hours (A) or 20 hours (B-C) and cultures analyzed for DUX4 mRNA levels by RT-qPCR. […] Data are represented as relative expression (means, with error bars indicating standard deviation across three biological replicates) with expression in the absence of inhibitor set to one. FSHD muscle cells utilize DUX4 exon 3, while SuSa cells and KLE cells use DUX4 exon 3b.
(§2) Total RNA was extracted from whole cells using the NucleoSpin RNA kit (Machery-Nagel) according to the manufacturer's instructions. Isolated RNA was treated with DNase I (Thermo Fisher Scientific), heat inactivated, and reverse transcribed into cDNA using SuperScript III (Thermo Fisher Scientific) and oligo(dT) primers (Invitrogen) following the manufacturer's protocol. Quantitative PCR was carried out on a QuantStudio 7 Flex (Applied Biosystems) using primers specific for each mRNA and iTaq SYBR Green Supermix (Bio-Rad Laboratories, Inc.). […]
(§3) Next, the cells were analyzed for DUX4 mRNA levels by RT-qPCR.

[3] = test system: DUX4 mRNA; test: DUX4 mRNA levels by RT-qPCR in SuSa testicular teratocarcinoma cells; assay type: cell-based, human; details: varying concentrations, 20 hours, vs DMSO vehicle set to one
Description: as §1, §2, §3

[4] = test system: DUX4 mRNA; test: DUX4 mRNA levels by RT-qPCR in KLE endometrial adenocarcinoma cells; assay type: cell-based, human; details: varying concentrations, 20 hours, vs DMSO vehicle set to one
Description: as §1, §2, §3

Chain of p38α (Q16539 whole entry): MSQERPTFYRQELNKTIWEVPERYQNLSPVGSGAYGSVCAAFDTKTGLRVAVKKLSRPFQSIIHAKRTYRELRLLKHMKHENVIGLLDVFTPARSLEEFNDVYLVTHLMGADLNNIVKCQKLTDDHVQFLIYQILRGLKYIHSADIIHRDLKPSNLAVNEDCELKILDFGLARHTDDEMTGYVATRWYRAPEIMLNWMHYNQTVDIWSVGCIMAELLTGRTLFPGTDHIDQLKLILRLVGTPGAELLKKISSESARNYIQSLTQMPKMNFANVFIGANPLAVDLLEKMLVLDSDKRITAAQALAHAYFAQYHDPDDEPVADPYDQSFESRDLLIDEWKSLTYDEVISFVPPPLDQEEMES

| Structure (SMILES) | Selectivity for p38α over p38β [1] | DUX4 mRNA levels (relative expression) [2] | DUX4 mRNA levels (relative expression) [3] | DUX4 mRNA levels (relative expression) [4] |
| --- | --- | --- | --- | --- |
| O=c1ncn2nc(Sc3ccc(F)cc3F)ccc2c1-c1c(Cl)cccc1Cl [VX-745] | p38α22X selective over p38β | – | – | – |
| CN(C)C/C=C/C(=O)Nc1ccc(C(=O)Nc2cccc(Nc3ncc(Cl)c(-c4c[nH]c5ccccc45)n3)c2)cc1 [THZ1] | – | inhibits DUX4 expression | inhibits DUX4 expression | inhibits DUX4 expression |
| NC(=O)c1ccc(N(C(N)=O)c2c(F)cccc2F)nc1-c1ccc(F)cc1F [VX-702] | p38α14X selective over p38β | – | – | – |

— patent US20220202845A1, “METHODS AND COMPOSITIONS FOR TREATING CANCER” (Fred Hutchinson Cancer Research Center, priority 2018, published 2022)
